Results: patent US10646488B2 (Araxes Pharma LLC, priority 2016, dated 2020)

Target: T1, KRAS G12C 1-169, his-tagged protein, GDP-loaded (Homo sapiens, UniProt P01116, G12C)
T1 construct: KRAS G12C 1-169, his-tagged protein, GDP-loaded
Test: Covalent binding (% modification) to KRAS G12C by mass spectrometry
Method: Test compounds were prepared as 10 mM stock solutions in DMSO (Fisher cat # BP-231-100). KRAS G12C 1-169, his-tagged protein, GDP-loaded was diluted to 2 μm in buffer (20 mM Hepes, 150 mM NaCl, 1 mM MgCl2). Compounds were tested for activity as follows:
Compounds were diluted to 50× final test concentration in DMSO in 96-well storage plates. Compound stock solutions were vortexed before use and observed carefully for any sign of precipitation. Dilutions were as follow: • For 100 μM final compound concentration, compounds were diluted to 5000 μM (5 μl 10 mM compound stock+5 μl DMSO and mixed well by pipetting. • For 30 μM final compound concentration, compounds were diluted to 1500 μM (3 μl 10 mM compound stock+17 μl DMSO) and mixed well by pipetting. • For 10 μM final compound concentration, compounds were diluted to 500 μM (2 μl 10 mM compound stock+38 μl DMSO) and mixed well by pipetting. 49 μl of the stock protein solution was added to each well of a 96-well PCR plate (Fisher cat #1423027). 1 μl of the diluted 50× compounds were added to appropriate wells in the PCR plate using 12-channel pipettor. Reactions were mixed carefully and thoroughly by pipetting up/down with a 200·1 multi-channel pipettor. […] 5 μl of 2% formic acid (Fisher cat # A117) in DI H2O was then added to each well followed by mixing with a pipette. The plate was then resealed with aluminum seal and stored on dry ice until analyzed as described below.
The above described assays were analyzed by mass spectrometry according to one of the following two procedures:
The MS instrument is set to positive polarity, 2 GHz resolution, and low mass (1700) mode and allowed to equilibrate for 30 minutes. The instrument is then calibrated, switched to acquisition mode and the appropriate method loaded.
After another 30 minute equilibration time, a blank batch (i.e., buffer) is run to ensure equipment is operating properly. The samples are thawed at 37° C. for 10 minutes, briefly centrifuged, and transfer to the bench top. Wells A1 and H12 are spiked with 1 uL 500 uM internal standard peptide, and the plates centrifuged at 2000×g for 5 minutes. The method is then run and masses of each individual well recorded.
The masses (for which integration data is desired) for each well are pasted into the platemap and exported from the analysis. Masses for the internal standards are exported as well. The data at 50 ppm is extracted for the +19 charge state, and identity of well A1 is assigned using the internal standard spike and integrated. Peak data is exported as a TOF list and the above steps are repeated individually, for the +20, 21, 22, 23, 24, and 25 charge states.
The masses and peak intensities of KRAS G12C protein species were measured using a Dionex RSLCnano system (Thermo Scientific) connected to a Q Exactive Plus mass spectrometer (Thermo Scientific).
[…] of sample was each loaded onto a Aeris™ 3.6 μm WIDEPORE C4 200 Å, LC Column 50×2.1 mm column maintained at 40° C. at a flow rate of 600 μl min^−1 with […] (0.1% formic acid in acetonitrile). The liquid chromatography conditions were 20% solvent B for 1 min, 20% to 60% solvent B for 1.5 min, 60% to 90% solvent for 0.5 min, 90% solvent B for 0.2 min, 90% to 20% solvent B for 0.2 min, and then equilibrated for 1.6 min before the following sample injection. The flow rate was maintained at 600 μl min^−1 throughout the sample analysis.
The mass spectrometer was operated in profile mode at a resolution of 17500, 5 microscans, using 50 msec max injection time and an AGC target of 1e6, and a full mass range from 800-1850 m/z was recorded. The HCD trapping gas was optimized for maximum sensitivity for intact proteins. The ionization method was electrospray ionization, which used a spray voltage of 4 kV, sheath gas flow set to 50 au, auxiliary gas flow set to 10 au and sweep gas flow set to 1 au. […]

[1] = covalent binding to KRAS G12C after a three minute incubation period
[2] = covalent binding to KRAS G12C after a ten minute incubation period

C=CC(=O)N1C[C@H](C)N(c2nc(N3CC4(CCCN(C)C4)C3)nc3c(F)c(-c4c(C)ccc5[nH]ncc45)c(Cl)cc23)C[C@H]1C [Compound 194, 1-((2R,5S)-4-(6-chloro-8-fluoro-7-(5-methyl-1H-indazol-4-yl)-2-(6-methyl-2,6-diazaspiro[3.5]nonan-2-yl)quinazolin-4-yl)-2,5-dimethyl-piperazin-1-yl) prop-2-en-1-one]
Binding % [1]: ++ (++ indicates binding activity from 50 to 90%)

C=CC(=O)N1C[C@@H](C)N(c2nc(N3CC(N(C)C)C3)nc3c(F)c(-c4c(O)cccc4F)c(Cl)cc23)C[C@H]1C [Compound 86, 1-((2R,5R)-4-(6-chloro-2-(3-(dimethylamino)azetidin-1-yl)-8-fluoro-7-(2-fluoro-6-hydroxyphenyl)quinazolin-4-yl)-2,5-dimethyl-piperazin-1-yl) prop-2-en-1-one]
Binding % [1]: + (+ indicates binding activity greater than 0% and up to 50%)

C=CC(=O)N1C[C@H](C)N(c2nc(OCCN3CCC(F)(F)C3)nc3c(F)c(-c4c(C)ccc5cn[nH]c45)c(Cl)cc23)C[C@H]1C [Compound 202, 1-((2R,5S)-4-(6-chloro-2-(2-(3,3-difluoro-pyrrolidin-1-yl)ethoxy)-8-fluoro-7-(6-methyl-1H-indazol-7-yl)quinazolin-4-yl)-2,5-dimethyl-piperazin-1-yl) prop-2-en-1-one]
Binding % [1]: +++ (+++ indicates binding activity greater than 90%)

C=CC(=O)N1C[C@H](C)N(c2nc(OCCN3CCC(F)(F)C3)nc3c(F)c(-c4cc(O)cc5ccccc45)c(Cl)cc23)C[C@H]1C [Compound 201, 1-((2R,5S)-4-(6-chloro-2-(2-(3,3-difluoropyrrolidin-1-yl)ethoxy)-8-fluoro-7-(3-hydroxynaphthalen-1-yl)quinazolin-4-yl)-2,5-dimethyl-piperazin-1-yl) prop-2-en-1-one]
Binding % [1]: ++ (++ indicates binding activity from 50 to 90%)

C=CC(=O)N1C[C@H](C)N(c2nc(N3CC(N(C)C4CCC4)C3)nc3c(F)c(-c4c(O)cccc4F)c(Cl)cc23)C[C@H]1C [Compound 110, 1-((2R,5S)-4-(6-chloro-2-(3-(cyclobutyl (methyl)amino)azetidin-1-yl)-8-fluoro-7-(2-fluoro-6-hydroxyphenyl)quinazolin-4-yl)-2,5-dimethyl-piperazin-1-yl) prop-2-en-1-one]
Binding % [1]: ++ (++ indicates binding activity from 50 to 90%)

[2H]C([2H])([2H])N(C1CN(c2nc(N3C[C@@H](C)N(C(=O)C=C)C[C@@H]3C)c3cc(Cl)c(-c4c(O)cccc4F)c(F)c3n2)C1)C([2H])([2H])[2H] (atropisomer, axis not shown) [Compound 207, 1-((2R,5S)-4-(2-(3-(bis(triduetero-methyl)amino)azetidin-1-yl)-6-chloro-8-fluoro-7-((S)-2-fluoro-6-hydroxyphenyl)quinazolin-4-yl)-2,5-dimethyl-piperazin-1-yl) prop-2-en-1-one]
Binding % [1]: +++ (+++ indicates binding activity greater than 90%)

C=CC(=O)N1C[C@H](C)N(c2nc(N3CC4(CCCN4C)C3)nc3c(F)c(-c4c(C)ccc5[nH]ncc45)c(Cl)cc23)C[C@H]1C [Compound 186, 1-((2R,5S)-4-(6-chloro-8-fluoro-7-(5-methyl-1H-indazol-4-yl)-2-(5-methyl-2,5-diazaspiro[3.4]octan-2-yl)quinazolin-4-yl)-2,5-dimethyl-piperazin-1-yl) prop-2-en-1-one]
Binding % [1]: ++ (++ indicates binding activity from 50 to 90%)

C=CC(=O)N1[C@H](C)CN(c2nc(OCCc3ccccn3)nc3c(F)c(-c4c(O)cccc4F)c(Cl)cc23)C[C@@H]1C [Compound 36, 1-((2R,6S)-4-(6-chloro-8-fluoro-7-(2-fluoro-6-hydroxyphenyl)-2-(2-(pyridin-2-yl)ethoxy)quinazolin-4-yl)-2,6-dimethyl-piperazin-1-yl) prop-2-en-1-one]
Binding % [2]: ++ (++ indicates binding activity from 50 to 90%)

C=CC(=O)N1C[C@H](C)N(c2nc(OCCN3CC(F)(F)C3)nc3c(F)c(-c4c(C)ccc5[nH]ncc45)c(Cl)cc23)C[C@H]1C [Compound 55, 1-((2R,5S)-4-(6-chloro-2-(2-(3,3-difluoroazetidin-1-yl)ethoxy)-8-fluoro-7-(5-methyl-1H-indazol-4-yl)quinazolin-4-yl)-2,5-dimethyl-piperazin-1-yl) prop-2-en-1-one]
Binding % [2]: +++ (+++ indicates binding activity greater than 90%)

C=CC(=O)N1C[C@H](C)N(c2nc(OCCCN(C)C)nc3c(F)c(-c4c(O)ccc5ccccc45)c(Cl)cc23)C[C@H]1C [Compound 224, 1-((2R,5S)-4-(6-chloro-2-(3-(dimethylamino)propoxy)-8-fluoro-7-(2-hydroxy-naphthalen-1-yl)quinazolin-4-yl)-2,5-dimethyl-piperazin-1-yl) prop-2-en-1-one]
Binding % [1]: ++ (++ indicates binding activity from 50 to 90%)

C=CC(=O)N1C[C@H](C)N(c2nc(OC3CCN(C4CC4)CC3)nc3c(F)c(-c4c(C)ccc5cn[nH]c45)c(Cl)cc23)C[C@H]1C [Compound 137, 1-((2R,5S)-4-(6-chloro-2-((1-cyclopropyl-piperidin-4-yl)oxy)-8-fluoro-7-(6-methyl-1H-indazol-7-yl)quinazolin-4-yl)-2,5-dimethyl-piperazin-1-yl) prop-2-en-1-one]
Binding % [1]: +++ (+++ indicates binding activity greater than 90%)

C=CC(=O)N1CCN(c2nc(N)nc3c(F)c(-c4c(O)cccc4F)c(Cl)cc23)C[C@@H]1C [Compound 3, 1-((2S)-4-(2-amino-6-chloro-8-fluoro-7-(2-fluoro-6-hydroxyphenyl)quinazolin-4-yl)-2-methylpiperazin-1-yl)prop-2-en-1-one]
Binding % [2]: ++ (++ indicates binding activity from 50 to 90%)

C=CC(=O)N1C[C@@H](C)N(c2nc(N)nc3c(F)c(-c4c(C)ccc5cn[nH]c45)c(Cl)cc23)[C@@H](C)C1 [Compound 31, 1-((3S,5R)-4-(2-amino-6-chloro-8-fluoro-7-(6-methyl-1H-indazol-7-yl)quinazolin-4-yl)-3,5-dimethyl-piperazin-1-yl) prop-2-en-1-one]
Binding % [2]: ++ (++ indicates binding activity from 50 to 90%)

C=CC(=O)N1CCN(c2nc(N3CC(N(C)C)C3)nc3c(F)c(-c4c(O)cccc4F)c(Cl)cc23)C[C@H]1C [Compound 56, 1-((2R)-4-(6-chloro-2-(3-(dimethylamino)azetidin-1-yl)-8-fluoro-7-(2-fluoro-6-hydroxyphenyl)quinazolin-4-yl)-2-methylpiperazin-1-yl)prop-2-en-1-one]
Binding % [2]: +++ (+++ indicates binding activity greater than 90%)

C=CC(=O)N1C[C@H](C)N(c2nc(N3CC4(CCN(C5CC5)C4)C3)nc3c(F)c(-c4c(O)cccc4F)c(Cl)cc23)C[C@H]1C [Compound 149, 1-((2R,5S)-4-(6-chloro-2-(6-cyclopropyl-2,6-diazaspiro[3.4]octan-2-yl)-8-fluoro-7-(2-fluoro-6-hydroxyphenyl)quinazolin-4-yl)-2,5-dimethyl-piperazin-1-yl) prop-2-en-1-one]
Binding % [1]: ++ (++ indicates binding activity from 50 to 90%)

C=CC(=O)N1CCN(c2nc(N3CC(N(C)C)C3)nc3c(F)c(-c4c(O)cccc4F)c(Cl)cc23)C[C@@H]1C [Compound 88, 1-((2S)-4-(6-chloro-2-(3-(dimethylamino)azetidin-1-yl)-8-fluoro-7-(2-fluoro-6-hydroxyphenyl)quinazolin-4-yl)-2-methyl-piperazin-1-yl) prop-2-en-1-one]
Binding % [1]: + (+ indicates binding activity greater than 0% and up to 50%)
